Test results published in patent EP1068199B1, “N-ARYLOXYETHYL-INDOLY-ALKYLAMINES FOR THE TREATMENT OF DEPRESSION” (Wyeth, priority 1998, dated 1999).

Legend:
5-HT1A cloned receptor = molecular target: T1, 5-HT1A cloned receptor (Homo sapiens, UniProt P08908); test: [35S]-GTPγS binding assay on 5-HT1A cloned receptor membrane fragments; type: biochemical; conditions: maximum agonist response defined by excess 8-OH-DPAT
T1 construct: expressed in transfected cells
T1 sequence (P08908 1-422): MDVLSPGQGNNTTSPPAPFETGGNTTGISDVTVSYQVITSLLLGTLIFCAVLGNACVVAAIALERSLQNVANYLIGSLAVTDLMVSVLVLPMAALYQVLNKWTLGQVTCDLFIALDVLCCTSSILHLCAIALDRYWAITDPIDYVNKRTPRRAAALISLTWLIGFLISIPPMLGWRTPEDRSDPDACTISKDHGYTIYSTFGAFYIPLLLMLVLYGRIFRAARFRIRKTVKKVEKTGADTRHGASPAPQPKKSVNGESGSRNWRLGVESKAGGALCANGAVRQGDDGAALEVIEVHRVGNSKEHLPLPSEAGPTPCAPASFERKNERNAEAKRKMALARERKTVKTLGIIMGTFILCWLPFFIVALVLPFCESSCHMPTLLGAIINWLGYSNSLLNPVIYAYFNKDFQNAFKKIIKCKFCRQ
Protocol: When needed, membranes were rapidly thawed, centrifuged at 40,000 x g for 10 minutes and resuspended at 4 °C for 10 minutes in assay buffer (25 mM HEPES, 3 mM MgCl2, 100 mM NaCI, 1 mM EDTA, 10 uM GDP, 500 mM DTT, pH 8.0). These membranes were then incubated for 30 min at 30 °C with [^35S]GTPgS (1 nM) in the presence of vehicle, test compound (one to eight concentrations), or excess 8-OH-DPAT to define maximum agonist response. All reactions are terminated by the addition of ice cold Tris buffer followed by rapid filtration using a Tom Tech® filtration device to separate bound from free [^35S]GTPgS.

serotonin transporter = molecular target: T2, serotonin transporter (Rattus norvegicus, UniProt P31652); test: Serotonin transporter affinity, 3H-paroxetine binding to frontal cortical membranes; design: species or system male Sprague-Dawley rats; conditions: read-out: ST (Ki, nM,)
T2 construct: frontal cortical membranes prepared from male Sprague-Dawley rats; from tissue; host or cells: rat frontal cortex membranes (male Sprague-Dawley)
Protocol: Briefly, frontal cortical membranes prepared from male Sprague-Dawley rats were incubated with ^3H-paroxetine (0.1 nM) for 60 min at 25°C. […] All reactions are terminated by the addition of ice cold Tris buffer followed by rapid filtration using a Tom Tech filtration device to separate bound from free ^3H-paroxetine.

[1] = molecular target: T3, human 5-HT1A receptor subtype (Homo sapiens, UniProt P08908); test: 5-HT1A receptor binding, [3H]8-OH-DPAT competition on h5-HT1A.CHO cell membranes; conditions: [3H]8-OH-DPAT 1.5 nM
T3 construct: expressed in transfected cells
T3 sequence (P08908 1-422): T1 sequence (P08908 1-422)
Protocol: A stable Chinese hamster ovary cell line expressing the human 5-HT1A receptor subtype (h5-HT1A.CHO cells) was employed throughout this study. Cells were maintained in DMEM supplemented with 10% fetal calf serum, non-essential amino acids and penicillin/ streptomycin.
Cells were grown to 95-100% confluency as a monolayer before membranes were harvested for binding studies. Cells were gently scraped from the culture plates, transferred to centrifuge tubes, and washed twice by centrifugation (2000 rpm for 10 min., 4°C) in buffer (50 mM Tris; pH 7.5). The resulting pellets were aliquoted and placed at -80°C. On the day of assay, the cells were thawed on ice, and resuspended in buffer. Studies were conducted using [^3H]8-OH-DPAT as the radioligand. The binding assay was performed in 96 well microtiter plates in a final total volume of 250 µL of buffer. […] Non-specific binding was determined in the presence of 10 µM 5HT. Saturation analysis was conducted by using [^3H]8-OH-DPAT at concentrations ranging from 0.3-30 nM. Following a 30 minute incubation at room temperature, the reaction was terminated by the addition of ice cold buffer and rapid filtration using a M-96 Brandel Cell Harvester (Gaithersburg, MD) through a GF/B filter presoaked for 30 minutes in 0.5% polyethyleneimine.

T2 sequence (P31652 whole entry): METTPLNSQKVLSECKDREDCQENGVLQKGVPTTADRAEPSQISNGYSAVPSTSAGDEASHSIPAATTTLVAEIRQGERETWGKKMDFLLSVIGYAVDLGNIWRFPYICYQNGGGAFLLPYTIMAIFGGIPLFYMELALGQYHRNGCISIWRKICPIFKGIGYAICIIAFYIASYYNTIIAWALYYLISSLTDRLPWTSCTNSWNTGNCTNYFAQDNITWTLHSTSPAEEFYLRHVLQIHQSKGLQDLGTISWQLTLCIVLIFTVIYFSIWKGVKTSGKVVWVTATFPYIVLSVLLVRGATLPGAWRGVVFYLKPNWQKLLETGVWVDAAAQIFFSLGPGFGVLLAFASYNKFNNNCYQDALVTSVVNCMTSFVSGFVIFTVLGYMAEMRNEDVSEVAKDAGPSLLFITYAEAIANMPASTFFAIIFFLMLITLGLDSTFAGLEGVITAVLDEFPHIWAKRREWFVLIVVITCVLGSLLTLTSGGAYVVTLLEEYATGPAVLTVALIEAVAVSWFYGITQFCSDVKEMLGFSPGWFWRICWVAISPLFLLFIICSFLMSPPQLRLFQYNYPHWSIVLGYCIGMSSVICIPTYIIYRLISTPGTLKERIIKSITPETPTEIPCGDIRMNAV

## O=c1[nH]c2cccc(OCCNCCCc3c[nH]c4ccccc34)c2[nH]1 [Example 2, 4-{2-[3-(1H-Indol-3-yl)-propylamino]-ethoxy}-1,3-dihydrobenzoimidazole-2-one]
5-HT1A cloned receptor
  Emax: 98.5%
Serotonin transporter
  Ki: 2.09 nM
[1]
  Ki: 3.17 nM

## S=c1[nH]c2cccc(OCCNCCCc3c[nH]c4ccccc34)c2[nH]1 [Example 3, 4-{2-[3-(1H-Indol-3-yl)-propylamino]-ethoxy}-1,3-dihydrobenzoimidazole-2-thione]
Serotonin transporter
  Ki: 21 nM
[1]
  Ki: 7.75 nM

## O=C1Cc2c(OCCNCCCc3c[nH]c4ccccc34)ccc(F)c2N1 [Example 6, 7-Fluoro-4-{2-[3-(1H-indol-3-yl)-propylamino]-ethoxy}-1,3-dihydro-indol-2-one]
5-HT1A cloned receptor
  Emax: 49.9%
Serotonin transporter
  Ki: 12 nM
[1]
  Ki: 39.1 nM
